Reference: PMC12591182, “PD‐L1‐Targeting Biomimetic Photoresponsive Thermosensitive Liposomes for Triple‐Negative Breast Cancer” (Advanced Science, 2025)

System: PD-L1 expression in 4T1 cells
Test: Immunoblot analysis of PD-L1 expression
Type: cell-based, mouse
Details: 4T1 cells cultured 48 h after exposure at 42 ℃ for 10 min
Protocol: fluctuations were continuously recorded using an infrared thermal imaging camera (FLIR E50, USA).
Cell lysis and immunoblotting
Cells were washed with PBS and lysed using RIPA buffer supplemented with protease inhibitors. The lysates were subjected to SDS-PAGE (12% or 10% Bis-Tris gel) and subsequently transferred onto a nitrocellulose membrane. The membrane was blocked with TBS-T containing 5% non-fat dry milk, followed by overnight incubation with the primary antibody at 4 °C. After triplicate washing with TBS-T, the membrane was incubated with the HRP-conjugated secondary antibody for 1 h at room temperature and developed using ECL detection reagents.
The TRIzol reagent was used for RNA extraction according to the manufacturer's instructions. Total RNA was reverse -transcribed into cDNA using an iScript cDNA synthesis kit. Quantitative analysis of the target genes was performed using the Universal SYBR Green Supermix qPCR kit. GAPDH was used as the reference gene for relative quantification normalization, with details of the primer sequences provided in Supplementary Table 1. […]
The lysis buffer was then neutralized by adding an equal volume of RPMI 1640 medium, followed by centrifugation at 500 × g for 3 min. […] After incubation, the cells were washed with PBS to remove T cells and debris, followed by crystal violet staining to quantify the live cancer cells. […]

Q: For “GFTATPPPDSPQEP/PEIF [PTPRF, fluorinated PTPR: PTPR combined with fluorinated polyethyleneimine PEIF]”, which “concentration that effectively inhibited PD-L1 expression” value is on record?
A: The value was 10 µM.
